Source: US12371748B2, “Genetic markers for predicting responsiveness to therapy with HDL-raising or HDL mimicking agent” (Hoffmann-La Roche Inc., priority 2014, dated 2025)

System: patients recently hospitalized for an Acute Coronary Syndrome (ACS)
Experiment: dal-OUTCOMES pharmacogenomic study: cardiovascular events by ADCY9 genotype (Cox proportional hazards)
Assay type: in vivo, human
Set-up: key to Responsiveness to treatment: NR = non-responsive; PR = partially responsive; R = responsive
Settings: for HR, dal-OUTCOMES: per copy of minor allele; for Hazard ratio (dal vs placebo): time to events
Method: Dal-OUTCOMES trial (NC20971) was a double blind, randomized, placebo-controlled, parallel group, multi-center, phase III study to assess the safety and efficacy of the CETP inhibitor dalcetrapib in patients recently hospitalized for an Acute Coronary Syndrome (ACS). At time of the interim analysis the study included 15871 randomized patients, distributed over two treatment arms: placebo (7933 patients) and dalcetrapib (600 mg daily; 7938 patients). […] The dal-OUTCOMES study details can be found in G. Schwartz et al., N. Engl. J. Med. 367; 22, 2012.
dal-Outcomes patients were recruited 4 to 12 weeks following hospitalization for acute coronary syndrome characterized by elevated cardiac biomarkers, with symptoms of acute myocardial ischemia, ischemic electrocardiographic abnormalities that were new or presumed to be new, or loss of viable myocardium on imaging. Patients without elevated cardiac biomarkers were eligible to participate if symptoms of acute myocardial ischemia were accompanied by electrocardiographic changes that were new or presumed to be new and by additional evidence of obstructive coronary disease. (Schwartz G G et al. Am Heart J 2009; 158:896-901 e3).
All patients were following individualized programs to target LDL cholesterol levels of 100 mg per deciliter (2.6 mmol per liter) or lower by statin if tolerated and diet. No specific statin agent was specified, and patients were not excluded based on LDL cholesterol values. Patients with serum triglyceride levels of 400 mg per deciliter (4.5 mmol per liter) or higher were excluded. (Schwartz G G et al. N Engl J Med 2012; 367:2089-99) Eligible participants to the dal-Outcomes trial entered a single-blind placebo run-in period of approximately 4 to 6 weeks to allow for patients to stabilise and for completion of planned revascularisation procedures. At the end of the run-in period, eligible patients in stable condition were randomised in a 1:1 ratio to 600 mg of dalcetrapib or placebo on top of evidence-based medical care for acute coronary syndrome. Cardiovascular events were adjudicated by an independent clinical endpoint committee. For the pharmacogenomics study, 6338 patients were recruited from April 2008 through July 2010 at 461 sites in 14 countries and provided written informed consent to participate to the genetic study of the dal-OUTCOMES trial. DNA was extracted from whole blood. Following genomic data cleanup, samples from 5749 Caucasian patients were used for the discovery genome-wide association study (GWAS).
The Illumina Infinium HumanOmni2.5Exome-8v1_A BeadChip including 2,567,845 genetic variants (Illumina, San Diego, California) was used for the discovery GWAS of 5749 Caucasian participants to the dal-OUTCOMES study. The chromosome 16 region including 5 genes upstream and downstream of the adenylate cyclase type 9 (ADCY9) gene (CHR16: 3,400,000-4,600,000) was imputed using IMPUTE2, providing 17,764 variants for analysis with an average completion rate of 99.76%. A Sequenom panel was used for the confirmation of imputed single nucleotide polymorphisms (SNPs) in the ADCY9 gene identified in dal-OUTCOMES and were tested in the dal-PLAQUE-2 study, including 20 SNPs with P values<0.05 from the discovery GWAS.
Genome-wide association study (GWAS)—Genome-wide genotyping was performed using 200 ng of genomic DNA in GLP-environment at the Beaulieu-Saucier Pharmacogenomics Centre (Montreal, Canada). The Illumina Infinium HumanOmni2.5Exome-8v1_A BeadChip (Illumina, San Diego, CA) including 2,567,845 genomic markers was used and processed according to the manufacturer's specifications. This chip includes over 200,000 exome variants identified through the Exome Chip Consortium. The remaining BeadChip content is a mix of rare and common SNPs from the 1000 Genome Project designed to be maximally informative for diverse world populations. Each BeadChip was scanned and analyzed using the Illumina iScan Reader. […]

CCC(CC)CC1(C(=O)Nc2ccccc2SC(=O)C(C)C)CCCCC1 [dalcetrapib, thioisobutyric acid S-(2-{[1-(2-ethyl-butyl)-cyclohexanecarbonyl]-amino}-phenyl) ester]
HR, association of rs2238448 with events in dal-OUTCOMES (dalcetrapib arm, genetic effect): 0.67
Patients with events (dalcetrapib arm, rs1967309 AA): 38
Patients without events (dalcetrapib arm, rs1967309 AA): 447
Patients with events (dalcetrapib arm, rs1967309 AG): 176
Patients without events (dalcetrapib arm, rs1967309 AG): 1203
Patients with events (dalcetrapib arm, rs1967309 GG): 176
Patients without events (dalcetrapib arm, rs1967309 GG): 802
HR, dal-OUTCOMES (rs1967309, Cox additive genetic model): 0.651
HR, dalcetrapib compared to placebo, coronary revascularizations removed from the endpoint (rs1967309 AA): 0.60
Responsiveness to treatment (rs1967309 AA): R
reduction in pre-specified composite endpoint with dalcetrapib compared to placebo (rs1967309 AA (n=961)): 39%
HR, composite endpoint, dalcetrapib compared to placebo (rs1967309 AA (n=961), discovery cohort): 0.61
Hazard ratio (dal vs placebo) (rs1967309 AA): 0.625
Responsiveness to treatment (rs1967309 AG): PR
Hazard ratio (dal vs placebo) (rs1967309 AG): 0.953
Responsiveness to treatment (rs1967309 GG): NR
increase in cardiovascular events, dalcetrapib versus placebo (rs1967309 GG (n=1984)): 27%
HR, cardiovascular events, dalcetrapib versus placebo (rs1967309 GG (n=1984), discovery cohort): 1.27
Hazard ratio (dal vs placebo) (rs1967309 GG): 1.248
response to dalcetrapib in words (rs1967309 heterozygous AG): intermediate response
HR, cardiovascular events, dalcetrapib versus placebo (rs1967309 heterozygous AG (n=2796), discovery cohort): 0.94
HR, dal-OUTCOMES (rs2238448, Cox additive genetic model): 0.671
Responsiveness to treatment (rs2238448 CC): NR
Hazard ratio (dal vs placebo) (rs2238448 CC): 1.291
Responsiveness to treatment (rs2238448 CT): PR
Hazard ratio (dal vs placebo) (rs2238448 CT): 0.974
Responsiveness to treatment (rs2238448 TT): R
Hazard ratio (dal vs placebo) (rs2238448 TT): 0.657
HR, dal-OUTCOMES (rs2239310, Cox additive genetic model): 0.674
Responsiveness to treatment (rs2239310 AA): NR
Hazard ratio (dal vs placebo) (rs2239310 AA): 1.150
Responsiveness to treatment (rs2239310 AG): PR
Hazard ratio (dal vs placebo) (rs2239310 AG): 0.971
Responsiveness to treatment (rs2239310 GG): R
Hazard ratio (dal vs placebo) (rs2239310 GG): 0.623
HR, dal-OUTCOMES (rs2283497, Cox additive genetic model): 0.766
Responsiveness to treatment (rs2283497 GG): NR
Hazard ratio (dal vs placebo) (rs2283497 GG): 1.226
Responsiveness to treatment (rs2283497 GT): PR
Hazard ratio (dal vs placebo) (rs2283497 GT): 0.999
Responsiveness to treatment (rs2283497 TT): R
Hazard ratio (dal vs placebo) (rs2283497 TT): 0.581
HR, dal-OUTCOMES (rs2531967, Cox additive genetic model): 0.734
Responsiveness to treatment (rs2531967 AA): R
Hazard ratio (dal vs placebo) (rs2531967 AA): 0.786
Responsiveness to treatment (rs2531967 AG): PR
Hazard ratio (dal vs placebo) (rs2531967 AG): 0.855
Responsiveness to treatment (rs2531967 GG): NR
Hazard ratio (dal vs placebo) (rs2531967 GG): 1.121
HR, dal-OUTCOMES (rs2531971, Cox additive genetic model): 0.664
Responsiveness to treatment (rs2531971 AA): R
Hazard ratio (dal vs placebo) (rs2531971 AA): 0.660
Responsiveness to treatment (rs2531971 AC): PR
Hazard ratio (dal vs placebo) (rs2531971 AC): 0.965
Responsiveness to treatment (rs2531971 CC): NR
Hazard ratio (dal vs placebo) (rs2531971 CC): 1.254
HR, dal-OUTCOMES (rs3730119, Cox additive genetic model): 0.763
Responsiveness to treatment (rs3730119 AA): R
Hazard ratio (dal vs placebo) (rs3730119 AA): 0.472
Responsiveness to treatment (rs3730119 AG): PR
Hazard ratio (dal vs placebo) (rs3730119 AG): 0.887
Responsiveness to treatment (rs3730119 GG): NR
Hazard ratio (dal vs placebo) (rs3730119 GG): 1.059
HR, dal-OUTCOMES (rs4786454, Cox additive genetic model): 0.668
Responsiveness to treatment (rs4786454 AA): R
Hazard ratio (dal vs placebo) (rs4786454 AA): 0.573
Responsiveness to treatment (rs4786454 AG): PR
Hazard ratio (dal vs placebo) (rs4786454 AG): 0.91
Responsiveness to treatment (rs4786454 GG): NR
Hazard ratio (dal vs placebo) (rs4786454 GG): 1.062
HR, dal-OUTCOMES (rs8049452, Cox additive genetic model): 1.413
Responsiveness to treatment (rs8049452 CC): R
Hazard ratio (dal vs placebo) (rs8049452 CC): 0.804
Responsiveness to treatment (rs8049452 CT): PR
Hazard ratio (dal vs placebo) (rs8049452 CT): 0.971
Responsiveness to treatment (rs8049452 TT): NR
Hazard ratio (dal vs placebo) (rs8049452 TT): 1.543
HR, dal-OUTCOMES (rs8061182, Cox additive genetic model): 1.343
